Data as given in patent US12060388B2, “Cell-penetrating peptides and methods of use thereof” (priority 2018, dated 2024).

Tests used:
Type in all cases: cell-based
HPV16 pseudovirus (PsV) = test: Peptide inhibition of HPV16 PsV infection of HeLa-S3 cells, flow cytometry for HcRed
Excerpt: FIG. 18A (top) depicts sequences of L2 peptides. […] Amino acid substitutions in the CPP or RBS mutant peptides are shown in orange and blue, respectively. Bottom: RBS and flanking sequences of indicated HPV L2 proteins or DMT1-II. FIG. 18B depicts an inhibitory dose-response curve for P16/16 peptide. 5×10^4 HeLa-S3 in 24-well plates were pretreated with various concentrations of P16/16 for one hour prior to infection with HPV pseudovirus (PsV) at multiplicity of infection (MOI) of 1. Peptide was left in the medium for the duration of the experiment. Cells were assessed by flow cytometry to determine the fraction of cells expressing reporter protein HcRed at 48 hours post-infection (h.p.i.). […] FIG. 18C depicts 5×10^4 HeLa-S3 in 24-well plates were pretreated with 14 μM of the indicated peptide for one hour, followed by infection with HPV PSV at MOI of one. Peptides were left in the medium for the duration of the experiment. As a control, cells were incubated with the solution used to dissolve peptide. Forty-eight h.p.i., cells were assessed by flow cytometry to determine fraction of cells expressing reporter protein HcRed. […] For the comparison of P16/16 to P16/6A, P16/3R, and PDM/16 for HPV16 PsV, **, p<0.01; ***, p<0.001. […] FIG. 18D depicts inhibition of HPV infection of HaCaT cells. HaCaT keratinocytes were infected at MOI of 1 with HPV16 PsV in the presence and absence of 14 μM P16/16, and infectivity was assessed 48 h.p.i. by flow cytometry for HcRed fluorescence. FIG. 18E depicts inhibition of authentic HPV16. HeLa cells were infected with HPV16 harvested from organotypic cultures of human keratinocytes or with HPV16 PsV in the presence (grey bars) or absence (black bars) of P16/16. Successful infection by HPV16 and HPV16 PsV was assessed by quantitative reverse transcription-PCR (qRT-PCR) for expression of HPV early region and HcRed mRNA, respectively, and normalized to infection by the cognate virus in the absence of peptide. Background signal determined with non-cognate primers was <0.01%.
To assess the effect of peptides on viral infection, 5×104 HeLa-S3 in 24-well plates were pretreated with peptides for one hour, followed by infection with wild-type HPV PsV at 37° C. at MOI of ˜1 or with mutant PsV containing an equivalent number of encapsidated reporter plasmids. Peptides were left in the medium for the duration of the experiment unless otherwise indicated. As a control, cells were incubated with the solution used to dissolve peptide. Cells were assessed by flow cytometry on a Stratedigm-13 flow cytometer to determine reporter protein expression at 48 h.p.i. unless otherwise indicated. In some experiments, peptides were added at various times after infection and were left in the medium for the duration of the experiment.

authentic HPV16 = test: Inhibition of authentic HPV16 in HeLa cells, qRT-PCR for viral mRNA; details: 14 μM, HPV16 from organotypic raft cultures, qRT-PCR 48 h.p.i.
Procedure: To measure the inhibition of infection by authentic HPV16, HeLa cells were infected with 5 μL raft-derived HPV16 (obtained from Craig Meyers, Hershey Medical Center) or with HPV16 PsV in the presence and absence of 14 μM P16/16, and total RNA was isolated 48 h.p.i. by using the RNeasy kit following the manufacturer's instructions. RNA was reverse-transcribed into cDNA by iScript cDNA Synthesis kit. The cDNA was quantified in triplicate by using SYBR Green Supermix real-time PCR detection system and primers for HPV16 E7 or HcRed. Actin mRNA were used for normalization.

SV40 = SV40 infection of HeLa-S3 cells, flow cytometry for large T antigen; details: 14 μM, MOI of ~1, 48 h.p.i.
Procedure: HeLa-S3 cells were treated with 14 μM P16/16 peptide or vehicle for one hour then infected with SV40 at MOI of ˜1. Forty-eight h.p.i., cells were washed, fixed, and permeabilized with cold methanol for 30 min. Cells were stained for intracellular SV40 large T antigen with fluorophore-conjugated monoclonal antibody PAb101, followed by flow cytometry. The histograms show number of cells and […] fluorescence in the absence or presence of peptide. Traces correspond to mock-infected cells (Line C), mock-infected cells in the presence of peptides (Line D), SV40-infected cells (Line A), and SV40-infected cells in the presence of peptides (Line B).
For studies of SV40 infection, 7.5×105 HeLa-S3 in 6-well plates were incubated with peptides prior to infection. Cells were infected with a crude preparation of SV40 at MOI of ˜1 and fixed with 4% paraformaldehyde at 48 h.p.i. Samples were stained with FITC-conjugated anti-large T antigen antibody (Pab101) (Santa Cruz, pSC147 FITC), followed by flow cytometry to determine the mean fluorescent intensity of T antigen staining.

EEA1 / HPV16 L1 = test: Proximity ligation assay for L1 and EEA1 in peptide-treated infected cells; details: 14 μM
Procedure: HeLa-S3 cells grown on glass coverslips for 16 hours were incubated for one hour with or without 14 μM P16/16, followed by mock-infection or infection with HPV16 PSV at MOI of 200. 8 and 16 h.p.i., cells were processed for PLA with anti-L1 antibody and an antibody recognizing EEA1 (FIG. 20A) or TGN46 (FIG. 20B). PLA was performed as in FIG. 19B. The PLA signal for EEA1/L1 was normalized to that of cells infected with HPV16 PsV in the absence of peptide at 8 h.p.i., while the TGN46/L1 signal was normalized to untreated cells at 16 h.p.i.
For the proximity ligation assay, after an hour incubation with peptides, HeLa-S3 cells were infected with wild-type PSV at MOI of 200 or mutant PsV containing the same number of reporter plasmid genomes. Infected cells were fixed at 8 or 16 h.p.i., permeabilized, and incubated with 1:100 dilutions of anti-L1 antibody and an antibody recognizing EEA1, TGN46, or VPS35. […] The nuclei were stained by using Abcam fluorescence mounting medium with DAPI and images were acquired by a Leica SP5 inverted fluorescence microscope. […] The images were processed by Fiji and quantitatively analyzed by BlobFinder software to measure total fluorescence intensity in each sample. The average fluorescence intensity per cell in each sample was normalized to the control sample as indicated in each experiment. […]

SMILES: CC[C@H](C)[C@H](NC(=O)[C@@H](NC(=O)[C@H](Cc1ccc(O)cc1)NC(=O)[C@H](CCC(N)=O)NC(=O)[C@@H]1CCCN1C(=O)[C@H](CO)NC(=O)[C@@H](N)CS)[C@@H](C)O)C(=O)N[C@H](C(=O)N[C@@H](C)C(=O)N[C@@H](CC(=O)O)C(=O)N[C@@H](C)C(=O)NCC(=O)N[C@@H](CC(=O)O)C(=O)N[C@@H](Cc1ccccc1)C(=O)N[C@@H](Cc1ccc(O)cc1)C(=O)N[C@@H](CC(C)C)C(=O)N[C@@H](Cc1c[nH]cn1)C(=O)N1CCC[C@H]1C(=O)N[C@@H](CO)C(=O)N[C@@H](Cc1ccc(O)cc1)C(=O)N[C@@H](Cc1ccc(O)cc1)C(=O)N[C@@H](CCSC)C(=O)N[C@@H](CC(C)C)C(=O)N[C@@H](CCCNC(=N)N)C(=O)N[C@@H](CCCCN)C(=O)N[C@@H](CCCNC(=N)N)C(=O)N[C@@H](CCCNC(=N)N)C(=O)N[C@@H](CCCCN)C(=O)N[C@@H](CCCNC(=N)N)C(=O)O)[C@@H](C)CC [P16/16]
- time of peptide addition for effective inhibition (HPV16 pseudovirus (PsV); 14 μM peptide added at time of infection or at indicated h.p.i.): needed to be added during the first few hours of infection
- persistence of inhibition (HPV16 pseudovirus (PsV); 14 μM peptide left in medium, 48, 72, or 96 h.p.i.): at least 96 h.p.i.
- inhibition of HPV16 PsV infection (HPV16 pseudovirus (PsV); 14 μM peptide, MOI of 1, 48 h.p.i.): statistically significant (p<0.01) inhibition
- infection after removal of peptide (HPV16 pseudovirus (PsV); peptide removed from the medium after 24 hours): infection was not restored over the next three days
- reduction in infection, dose-response (HPV16 pseudovirus (PsV); various concentrations of peptide, MOI of 1, 48 h.p.i.): dose-dependent reduction in infection
- inhibition of authentic HPV16 (authentic HPV16): inhibited
- inhibition of SV40 infection (SV40): did not inhibit
- EEA1/L1 PLA at 8 h.p.i. (EEA1 / HPV16 L1; MOI of 200, 8 h.p.i.): arrival of HPV at the endosome regardless of the presence of the peptide
- EEA1/L1 PLA at 16 h.p.i. (EEA1 / HPV16 L1; MOI of 200, 16 h.p.i.): striking accumulation of the virus in the endosome
